Reference: patent publication US7754239B2, “Capsule for rapid solubilization and release of the content” (V. Mane Fils S.A., priority 2001, dated 2010)

Assay: In vitro kinetics of release of aromatic molecules in water (test A samples)
Type: physicochemical
Conditions: water 37° C., pH 6.5, 5 mm capsule of Example 3; for Total concentration of aromatic molecules over all samples: Total 0-70 seconds
Protocol: A 5 mm capsule, the composition of which is given in Table 5, is analyzed according to test A.
The taking of various samples makes it possible to establish the in vitro kinetics of release of aromatic molecules in water at 37° C.+/−1° C. and at pH 6.5. Table 6 indicates the concentration of aromatic molecules of various samples.
It may be noted that most of the molecules are released within 40 s, at most within 70 s.

Total concentration of aromatic molecules over all samples [ppm]	concentration of aromatic molecules of sample (time 0-5 seconds) [ppm]	concentration of aromatic molecules of sample (time 5-10 seconds) [ppm]	concentration of aromatic molecules of sample (time 10-15 seconds) [ppm]	concentration of aromatic molecules of sample (time 15-20 seconds) [ppm]	concentration of aromatic molecules of sample (time 20-30 seconds) [ppm]	concentration of aromatic molecules of sample (time 30-40 seconds) [ppm]	concentration of aromatic molecules of sample (time 40-50 seconds) [ppm]	concentration of aromatic molecules of sample (time 50-60 seconds) [ppm]	concentration of aromatic molecules of sample (time 60-70 seconds) [ppm]	Compound
399	47	67	63	90	62	24	24	16	6	CC1CCC(C(C)C)C(O)C1 (centres unmarked) [Menthol]
139	19	28	22	31	20	7	7	4	1	Cc1ccc(C(C)C)c(O)c1 [Thymol]
